According to patent US7045300B2, “Lectin protein prepared from Maackia fauriei, process for preparing the same and the use thereof” (priority 2001, dated 2006):

B1: Fetuin: glycoprotein containing N-acetylneuraminic acid (protein, UniProt P12763 19-359, looked up)
Alpha-2-HS-glycoprotein: IPLDPVAGYKEPACDDPDTEQAALAAVDYINKHLPRGYKHTLNQIDSVKVWPRRPTGEVYDIEIDTLETTCHVLDPTPLANCSVRQQTQHAVEGDCDIHVLKQDGQFSVLFTKCDSSPDSAEDVRKLCPDCPLLAPLNDSRVVHAVEVALATFNAESNGSYLQLVEISRAQFVPLPVSVSVEFAVAATDCIAKEVVDPTKCNLLAEKQYGFCKGSVIQKALGGEDVRVTCTLFQTQPVIPQPQPDGAEAEAPSAVPDAAGPTPSAAGPPVASVVVGPSVVAVPLPLHRAHYDLRHTFSGVASVESSSGEAFHVGKTPIVGQPSIPGGPVRLCPGRIRYFKI
B2: Asialofetuin: glycoprotein tested as hemagglutination inhibitor (protein, UniProt P12763 19-359, looked up)
Alpha-2-HS-glycoprotein: IPLDPVAGYKEPACDDPDTEQAALAAVDYINKHLPRGYKHTLNQIDSVKVWPRRPTGEVYDIEIDTLETTCHVLDPTPLANCSVRQQTQHAVEGDCDIHVLKQDGQFSVLFTKCDSSPDSAEDVRKLCPDCPLLAPLNDSRVVHAVEVALATFNAESNGSYLQLVEISRAQFVPLPVSVSVEFAVAATDCIAKEVVDPTKCNLLAEKQYGFCKGSVIQKALGGEDVRVTCTLFQTQPVIPQPQPDGAEAEAPSAVPDAAGPTPSAAGPPVASVVVGPSVVAVPLPLHRAHYDLRHTFSGVASVESSSGEAFHVGKTPIVGQPSIPGGPVRLCPGRIRYFKI
modifications: desialylated

Key:
lectin MFA [1] = assay: Hemagglutination-inhibition assay of the lectin MFA with monosaccharide, disaccharide and glycoprotein; type: biochemical, Maackia fauriei; design: key to Minimum erythrocyte agglutination inhibition concentration: —: The negative sign (−) means that there is no hemagglutination-inhibition; conditions: for Minimum erythrocyte agglutination inhibition concentration: 6.25% mouse erythrocyte, lectin MFA diluted 128-fold; for inhibition of agglutination: starting from 1 mg/ml solution of each carbohydrate, 128-fold diluted lectin MFA
Experimental: In order to confirm that the lectin MFA of the present invention recognizes N-acetylneuraminic acid, hemagglutination-inhibition reaction was performed using monosaccharide, disaccharide and glycoprotein. 50 μl of a 128-fold diluted solution of lectin MFA in 0.15 M NaCl and 50 μl of each 1 mg/ml solution of monosaccharides (e.g., β-D-glucose, D-galactose, L-fucose, D-mannose, N-acetylneuraminic acid, N-glycolylneuraminic acid, N-acetyl-D-glucosamine, N-acetyl-D-galactosamine and methyl-α-D-glucopyranoside), disaccharide (e.g., α-lactose, β-lactose, D-lactose, β-gentiobiose, maltose, D-raffinose or D-cellobiose) and glycoprotein (e.g., fetuin and asialofetuin) in 0.15 M NaCl were added to the each well of a 96-well microplate. After the reaction for one hour or more at room temperature, 50 μl of the erythrocyte suspended in 0.15 M NaCl was added to each well and reacted for one hour at room temperature.
The negative sign (−) means that there is no hemagglutination-inhibition. […] NeuGc and NeuAc represent N-glycolylneuraminic acid and N-acetylneuraminic acid, respectively.

lectin MFA [2] = assay: as above; type: biochemical, Maackia fauriei; conditions: at 10 mM
fetuin = assay: Comparison of binding specificity of lectins, hemagglutination inhibition by fetuin; type: biochemical; conditions: 6.25% human B type erythrocyte
Experimental: (§1) The binding specificity of the MFA with Wheat germ agglutinin, Maackia amurensis aggulutinin, Limulus polyphemus lectin, and Sambucus niger agglutinin which have already been reported to recognize N-acetylneuraminic acid was determined by a hemagglutination inhibition response using 10 mM of N-acetylneuraminic acid and N-acetylneuraminic acid-binding fetuin.
(§2) The negative sign (−) means no hemagglutination inhibition up to 10 mM

[3] = Comparison of binding specificity of lectins, hemagglutination inhibition by N-acetylneuraminic acid; type: biochemical; conditions: 6.25% human B type erythrocyte; tested up to 10 mM
Experimental: as §1, §2

| Molecule | Minimum erythrocyte agglutination inhibition concentration (lectin MFA [1]; dash = no inhibition) | further results |
| --- | --- | --- |
| OC[C@H]1O[C@@H](O[C@H]2[C@H](O)[C@@H](O)[C@@H](O)O[C@@H]2CO)[C@H](O)[C@@H](O)[C@H]1O [α-lactose] | — |  |
| O=C(CO)N[C@H]1[C@H]([C@H](O)[C@H](O)CO)OC(O)(C(=O)O)C[C@@H]1O (some centres unmarked) [N-glycolylneuraminic acid] | — |  |
| OC[C@H]1O[C@@H](OC[C@H]2O[C@@H](O)[C@H](O)[C@@H](O)[C@@H]2O)[C@H](O)[C@@H](O)[C@@H]1O [β-gentiobiose] | — |  |
| O=C[C@H](O)[C@@H](O)[C@@H](O)[C@H](O)CO [D-galactose] | — |  |
| OC[C@H]1O[C@@H](O[C@H]2[C@H](O)[C@@H](O)[C@H](O)O[C@@H]2CO)[C@H](O)[C@@H](O)[C@H]1O [β-lactose] | — |  |
| CC(=O)N[C@H]1C(O)O[C@H](CO)[C@@H](O)[C@@H]1O (stereo partly drawn) [N-acetyl-D-glucosamine] | — |  |
| CC(=O)N[C@H]1[C@H]([C@H](O)[C@H](O)CO)OC(O)(C(=O)O)C[C@@H]1O (some centres unmarked) [N-acetylneuraminic acid] |  | Minimum erythrocyte agglutination inhibition concentration (lectin MFA [1]): 10.0 mM; inhibition of agglutination (lectin MFA [1]): inhibited the agglutination |
| O=C[C@@H](O)[C@@H](O)[C@H](O)[C@H](O)CO [D-mannose] | — |  |
| OC[C@H]1O[C@@H](O[C@H]2[C@H](O)[C@@H](O)[C@H](O)O[C@@H]2CO)[C@H](O)[C@@H](O)[C@@H]1O [D-cellobiose] | — |  |
| C[C@H](O)[C@@H](O)[C@@H](O)[C@H](O)C=O [L-fucose] | — |  |
| OC[C@H]1O[C@H](O[C@H]2[C@H](O)[C@@H](O)[C@H](O)O[C@@H]2CO)[C@H](O)[C@@H](O)[C@@H]1O [Maltose] | — |  |
| OC[C@H]1O[C@H](OC[C@H]2O[C@H](O[C@]3(CO)O[C@H](CO)[C@@H](O)[C@@H]3O)[C@H](O)[C@@H](O)[C@@H]2O)[C@H](O)[C@@H](O)[C@H]1O [D-raffinose] | — |  |
| OC[C@H]1O[C@@H](O[C@H]2[C@H](O)[C@@H](O)C(O)O[C@@H]2CO)[C@H](O)[C@@H](O)[C@H]1O (stereo partly drawn) [D-lactose] | — |  |
| CO[C@H]1O[C@H](CO)[C@@H](O)[C@H](O)[C@H]1O [Methyl-α-D-glucopyranoside] | — |  |
| CC(=O)N[C@H]1C(O)O[C@H](CO)[C@H](O)[C@@H]1O (stereo partly drawn) [N-acetyl-D-galactosamine] | — |  |
| CC(=O)N[C@H]1C(O)O[C@H](CO)[C@@H](O[C@@H]2O[C@H](CO)[C@H](O)[C@H](O)[C@H]2O)[C@@H]1O (some centres unmarked) [N-acetylactosamine] |  | hemagglutination inhibition (lectin MFA [2]): did not show hemagglutination inhibition |
| Wheat germ agglutinin |  | Minimum hemagglutination-inhibition concentration, Fetuin (fetuin): 207 µM; Minimum hemagglutination-inhibition concentration, N-acetylneuraminic acid [3]: — (The negative sign (−) means no hemagglutination inhibition up to 10 mM) |
| OC[C@H]1O[C@@H](O)[C@H](O)[C@@H](O)[C@@H]1O [β-D-glucose] | — |  |
| B1 |  | Minimum erythrocyte agglutination inhibition concentration (lectin MFA [1]): 0.0052 mM; inhibition of agglutination (lectin MFA [1]): inhibited the agglutination |
| B2 | — |  |
